We go through three molecules from patent US10407437B2, “Camptothecin derivatives and uses thereof” (Los Gatos Pharmaceuticals, Inc., priority 2016, dated 2019).

Read-outs that look alike come from different tables or passages of the source. Some results are limits rather than exact numbers.

For one assay, the system named is SW620 cells. Description: Anti-proliferative activity, AlamarBlue assay, SW620 cells. The class given is cell-based, human. Conditions: for IC50: SW620 human colorectal adenocarcinoma cells, 48-72 hours with compound, AlamarBlue, sigmoidal regression curve, read-out: IC50 of anti-proliferative drugs in SW620 cells. As for the experimental part: (§1) Human colorectal adenocarcinoma cell lines HT29 and SW620, as well as murine colon carcinoma cell line CT26, were purchased from the American Type Culture Collection (ATCC) and grown in either Dulbecco's Modified Eagle Medium (DMEM) or Roswell Park Memorial Institute (RPMI) medium from Corning and Life Technologies, respectively. These media were supplemented with 10% fetal bovine serum (FBS, Atlanta Biologicals), as well as 1 mM sodium pyruvate (Corning) and 10 mM HEPES (Fisher) for CT26 cells. Cells were grown in Corning 75 cm^2 flasks and split approximately 6 days before plating, with a refeed of fresh media the day prior to plating. Anti-proliferative drugs 2, 3 and SN38, were reconstituted in DMSO for storage at −20° C. until use. AlamarBlue, a colorimetric cell metabolism reagent, was purchased from Life Technologies.
To qualify AlamarBlue incubation time and required cell density, cells were plated into flat bottom 96 well plates (Techno Plastic Products, Trasadingen, Switzerland) at plating densities from 4×10^4 to 1.25×10^3 cells per well. The cells were incubated at 37° C. inside a Nu-Aire TS Autoflow incubator with 5% CO2 and humidity for 48-72 hours, AlamarBlue reagent was then added to all wells, equivalent to 10% of the culture volume or 20 μL. The plates were returned to the 37° C. incubator, and the absorbance at 570 and 600 nm were assessed using a Bio-Tek Epoch microplate reader at 1, 2, 4, 7 and in some experiment 24 hours post addition of AlamarBlue. Once the optimum cell density and incubation time was determined for each cell line, testing of the anti-proliferative drugs on the cells was initiated. […] After addition of AlamarBlue, plates were incubated for 4 hours at 37° C. and absorbance assessed using the Epoch microplate reader. Absorbances were used to calculate the % inhibition for each well using the following equation, where O1 is the molar extinction coefficient of oxidized AlamarBlue at 570 nm (80586), O2 is the molar extinction coefficient of oxidized AlamarBlue at 600 nm (117216), A1 is the absorbance of the test wells at 570 nm, A2 is the absorbance of the test wells at 600 nm, P1 is the absorbance of the control wells with AlamarBlue but without test agent at 570, and P2 is the absorbance of the control wells with AlamarBlue but without the test agent at 600. % difference between=(O2×A1)−(O1×A2)×100treated and untreated cells (O2×P1)−(O1×P2)
(§2) The dose response data generated by these values was used to calculate the half maximal inhibitory concentration (IC50) using a regression curve (3 or 4 parameter logistic sigmoidal curve or sigmoidal sigmoid curve) in Sigma Plot, version 12.5. Statistical differences were calculated using SPSS Statistics software, version 17.0, using the independent t-test with an α of 0.05. […]
A general note: Alamar Blue is a resazurin reagent that responds to reducing activity.

A further assay relates to CT26 cells. Briefly: Anti-proliferative activity, AlamarBlue assay, CT26 cells. The class given is cell-based. Conditions: CT26 murine colon carcinoma cells, 48-72 hours with compound, 4 parameter regression curve, read-out: IC50 of anti-proliferative drugs in CT26 cells. As to the method:
as §1
To qualify AlamarBlue incubation time and required cell density, cells were plated into flat bottom 96 well plates (Techno Plastic Products, Trasadingen, Switzerland) at plating densities from 4×10^4 to 1.25×10^3 cells per well. […] The plates were returned to the 37° C. incubator, and the absorbance at 570 and 600 nm were assessed using a Bio-Tek Epoch microplate reader at 1, 2, 4, 7 and in some experiment 24 hours post addition of AlamarBlue. Once the optimum cell density and incubation time was determined for each cell line, testing of the anti-proliferative drugs on the cells was initiated. […] After addition of AlamarBlue, plates were incubated for 4 hours at 37° C. and absorbance assessed using the Epoch microplate reader. […]
as §2

In a further assay the test system is HT29 cells. Description: Anti-proliferative activity, AlamarBlue assay, HT29 cells. The class given is cell-based, human. The conditions noted are these: for % inhibition compared to SN38 / inhibition at 33.3 µM: HT29 cells; for % inhibition compared to SN38: highest concentration tested, 100 μM; for IC50: HT29 human colorectal adenocarcinoma cells, 48-72 hours with compound, AlamarBlue, sigmoidal logistic regression curve, read-out: IC50 of anti-proliferative drugs in HT29 cells; for inhibition at 33.3 µM: Homo sapiens. As to the method: as §1
To qualify AlamarBlue incubation time and required cell density, cells were plated into flat bottom 96 well plates (Techno Plastic Products, Trasadingen, Switzerland) at plating densities from 4×10^4 to 1.25×10^3 cells per well. The cells were incubated at 37° C. inside a Nu-Aire TS Autoflow incubator with 5% CO2 and humidity for 48-72 hours, AlamarBlue reagent was then added to all wells, equivalent to 10% of the culture volume or 20 μL. The plates were returned to the 37° C. incubator, and the absorbance at 570 and 600 nm were assessed using a Bio-Tek Epoch microplate reader at 1, 2, 4, 7 and in some experiment 24 hours post addition of AlamarBlue. Once the optimum cell density and incubation time was determined for each cell line, testing of the anti-proliferative drugs on the cells was initiated. For each cell line, cells were plated at 5×10^3 cells per well and incubated at 37° C. for 24 hours, at which time the anti-proliferative compounds were added. […] Aliquots of anti-proliferatives were thawed, diluted in media appropriate for each cell line, and serially diluted 1:3. A serial pipetter, was used to deliver 100 μl of each concentration of anti-proliferative compound to the appropriate wells in triplicate, the plate was tapped gently to mix, and then incubated at 37° C. for 48-72 hours. Control wells containing media alone and media with an equal percentage of DMSO in comparison to the initial anti-proliferative dilution were also established in each plate. After a minimum of 48 hours of incubation, 20 μl of AlamarBlue was added to each experimental well as well as the negative control wells. AlamarBlue positive control wells, containing 200 μl of 100% reduced AlamarBlue, were also established to provide a colorimetric endpoint reference for the assay. After addition of AlamarBlue, plates were incubated for 4 hours at 37° C. and absorbance assessed using the Epoch microplate reader. Absorbances were used to calculate the % inhibition for each well using the following equation, where O1 is the molar extinction coefficient of oxidized AlamarBlue at 570 nm (80586), O2 is the molar extinction coefficient of oxidized AlamarBlue at 600 nm (117216), A1 is the absorbance of the test wells at 570 nm, A2 is the absorbance of the test wells at 600 nm, P1 is the absorbance of the control wells with AlamarBlue but without test agent at 570, and P2 is the absorbance of the control wells with AlamarBlue but without the test agent at 600. % difference between=(O2×A1)−(O1×A2)×100treated and untreated cells (O2×P1)−(O1×P2)
as §2

As a reminder, the IC50 is the midpoint of a concentration-inhibition curve. The inhibition is the change of the read-out against control, counted positive when it falls. In the case of `CCCCC(=O)O[C@]1(CC)C(=O)OCc2c1cc1n(c2=O)Cc2c-1nc1ccc(O)cc1c2CC` [Compound 2], the IC50 is 1.9 µM in the assay with SW620 cells (SW-620), 18 µM in the assay on CT26 cells (Mus musculus) and 5.6 µM in the assay with HT29 cells (HT-29). The “% inhibition compared to SN38” value in the assay on HT29 cells is on record as “not significantly different from SN38”. The molecule also registered an inhibition at 33.3 µM in the assay with HT29 cells (HT-29) of over 54%.
On to `CCCCCCCCCCCCCC(=O)O[C@]1(CC)C(=O)OCc2c1cc1n(c2=O)Cc2c-1nc1ccc(O)cc1c2CC` [Compound 3], for which the values for the IC50 in the assay with SW620 cells (SW-620), in the assay with CT26 cells (Mus musculus) and with HT29 cells (HT-29) were 10.3 µM, 14.2 µM and 17.1 µM, respectively. Also, in the assay with HT29 cells, the “% inhibition compared to SN38” value is given as “not significantly different from SN38”. Moreover, the inhibition at 33.3 µM in the assay with HT29 cells (HT-29) is over 54%.
`CCc1c2c(nc3ccc(O)cc13)-c1cc3c(c(=O)n1C2)COC(=O)[C@]3(O)CC` [SN38, reference compound]: the “% inhibition” value in the assay with SW620 cells (SW620 cells, throughout all concentrations tested (100 μM to 0.4 μM)) is “over 55%”. The figures for the IC50 in the assay with SW620 cells, with CT26 cells and in the assay with HT29 cells were 0.7 µM, 0.6 µM and 0.2 µM, respectively.
